This passage reports viability, T/C and IC50 results from PubChem BioAssay AID1963833 (Molecular Pharmacology Branch, DTP, NCI, 2024).

The subject of the assay is 883617-216-R-J1-PDC complex spheroid viability. Put plainly: Anticancer human tumor 883617-216-R-J1-PDC patient-derived bladder carcinoma cell line growth inhibition [POLQ]. Conditions: for viability, T/C: stronger effect = lower value. As for the experimental part: Multicellular complex tumor spheroid response to Polymerase (POL) inhibitors (novobiocin, ART-558, RP6685) in combination with a variety of drugs and investigational agents in selected tumor cell lines
The POL inhibitors (novobiocin, ART-558, and RP6685) were evaluated both individually and in combination with standard of care and investigational anticancer small molecules within a complex spheroid model of solid tumors. . Complex spheroids include a stromal component modeled by human endothelial cells (HUVEC) and fibroblasts modeled by human mesenchymal stem cells (MSCs). The concentration ranges selected for each drug and investigational agent were based upon clinically achievable concentrations if the clinical Cmax of the agent was known.
Compounds. The drugs and investigational agents: novobiocin (NSC847541), ART-558 (NSC835418), RP-6685 (NSC848927), peposertib (NSC802822), ceralasertib (NSC780249), elimusertib (NSC800525), camonsertib (NSC841442), AZD-1390 (NSC803789), olaparib (NSC753686), talazoparib (NSC767125), rucaparib (NSC756644), sotorasib (NSC818433), MRTX-1133 (NSC836407), SN-38 (NSC673596), topotecan (NSC609699), epotoside (NSC141540), doxorubicin (NSC123127), gemcitabine (NSC613327), 5-fluorouracil (NSC19893), paclitaxel (NSC125973), vemurafenib (NSC761431), MSA-2 (NSC828583), SN-011 (NSC837082), adavosertib (NSC754352), prexasertib (NSC758257), carboplatin (NSC241240) and oxaliplatin (NSC266046), were obtained from the National Cancer Institute (NCI) Developmental Therapeutics Program Chemical Repository (21). The FDA-approved anticancer drug set is available from the Developmental Therapeutics Program at https://dtp.cancer.gov/organization/dscb/obtaining/. […] The stock solutions were prepared in dimethyl sulfoxide (DMSO, Sigma-Aldrich, St. Louis, MO, cat. D2650), except for the platinum compounds which were prepared in saline (Quality Biological, Gaithersburg, MD, cat. 114-055-101), at 800-fold the tested concentration and stored at -70 degrees C prior to their use. All drugs and investigational agents were tested over a range starting from a high concentration at or near the clinical Cmax and decreasing in half-log increments. If the clinical Cmax for an agent had not been determined, the highest concentration tested was 10 microM, except for SN-38, which was tested at a high concentration of 1 microM.
Cell Culture. All cells were maintained in an incubator at 37 degrees C and 5% CO2 with 95% humidity. The PDC lines were cultured according to standard operating procedures established by the NCI PDMR (https://pdmr.cancer.gov). Table 3 of the manuscript, lists the cell lines along with the number of the three cell types plated to form the mct-spheroids and media for tumor cell growth. After thawing, all PDC lines, except 997537-175-T-J1-PDC and 415267-285-R-J2-PDC, were cultured in Matrigel-coated flasks prepared with a working solution of 1X Ham's F-12 nutrient mix, without supplementation (Thermo Fisher Scientific, cat. 11765054), 100 U/mL penicillin-streptomycin (Thermo Fisher Scientific, cat. 15140122), and 2.5% Matrigel (Corning Inc., Corning, NY, cat. 354248) for the first three passages. The two PDC lines 997537-175-T-J1-PDC and 415267-285-R-J2-PDC were cultured on uncoated flasks. The 857933-349-R-J2-PDC line was cultured in 6C/Colon 1B media containing advanced DMEM/F-12 (Thermo Fisher Scientific, cat. 12634028), 10 mM HEPES (Thermo Fisher Scientific, cat. 15630080), 1X GlutaMAX supplement (Thermo Fisher Scientific, cat. 35050061), 0.1 mg/mL primocin (InvivoGen, San Diego, CA, cat. ant-pm-2), 10% defined fetal bovine serum, heat inactivated (HyClone Laboratories Inc., Logan, UT, cat. SH30070.03HI), 50% L-WRN conditioned media (ATCC, cat. CRL-3276), 1.25 mM N-Acetyl-L-cysteine (Sigma-Aldrich, cat. A9165), 10 mM nicotinamide (Sigma-Aldrich, cat. N0636), 1X B-27 supplement (Thermo Fisher Scientific, cat. 17504044), 1X N-2 supplement (Thermo Fisher Scientific, cat. […]

SMILES strings stand for the structures. “And” between values parts separate entries of the source, which are not always exact repeats. Equal entries are not always repeated.
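Note: spheroids exposed to compounds for seven days before readout.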

Regarding `COc1ccc([C@@H](O)c2cc(-c3ncnc4cc(N5CCOCC5)ccc34)c(F)cc2Cl)nn1`, the viability, T/C was 99% and 86.7% and 96.3% (compound 0.0316 µM); 73% and 81.7% and 93.3% (compound 0.1 µM); 81.5% and 83.3% and 94% (compound 0.316 µM); 62.8% and 61.7% and 69% (compound 1 µM); 48.3% and 47.9% and 48.8% (compound 3.16 µM); 30.1% and 35.8% and 31.2% (compound 10 µM). Besides, the half-inhibitory concentration (IC50) (curve of compound) was 2610 nM and 2430 nM and 2720 nM.

On to `CC(C)n1c(=O)n(C)c2cnc3cc(F)c(-c4ccc(OCCCN5CCCCC5)nc4)cc3c21`, for which the viability, T/C runs as follows: (compound 0.0316 µM) 96% and 105% and 102%; (compound 0.1 µM) 90.3% and 101% and 98.8%; (compound 0.316 µM) 112% and 103% and 111%; (compound 1 µM) 106% and 108% and 94.5%; (compound 3.16 µM) 87.5% and 84% and 102%; (compound 10 µM) 52.9% and 72% and 69.1%. The IC50 (curve of compound) is above 10000 nM.

Consider `CC(=O)O[C@H]1C(=O)[C@@]2(C)[C@H]([C@H](OC(=O)c3ccccc3)[C@]3(O)C[C@H](OC(=O)[C@H](O)[C@@H](NC(=O)c4ccccc4)c4ccccc4)C(C)=C1C3(C)C)[C@]1(OC(C)=O)CO[C@@H]1C[C@@H]2O` + Cc1cccc(N(C)C(=O)C2C(O)CCN2c2nc(C)cc(C(F)(F)F)c2C#N)c1, for which the IC50 by setting is: (curve of first compound, second compound 0.0316 µM) below 9.49 nM; (curve of first compound, second compound 0.1 µM) below 9.49 nM; (curve of first compound, second compound 0.316 µM) 10.4 nM; (curve of first compound, second compound 1 µM) below 9.49 nM; (curve of first compound, second compound 3.16 µM) below 9.49 nM; (curve of first compound, second compound 10 µM) 11.1 nM. In addition, the viability, T/C runs as follows: (second compound 0.0316 µM, first compound 0.00949 µM) 40.2%; (second compound 0.0316 µM, first compound 0.03 µM) 22.1%; (second compound 0.0316 µM, first compound 0.0949 µM) 22%; (second compound 0.0316 µM, first compound 0.3 µM) 19.8%; (second compound 0.0316 µM, first compound 0.949 µM) 18.5%; (second compound 0.0316 µM, first compound 3 µM) 23.1%. The viability, T/C is, setting by setting: (second compound 0.1 µM, first compound 0.00949 µM) 46.9%; (second compound 0.1 µM, first compound 0.03 µM) 29.2%; (second compound 0.1 µM, first compound 0.0949 µM) 21.6%; (second compound 0.1 µM, first compound 0.3 µM) 27.5%; (second compound 0.1 µM, first compound 0.949 µM) 24.6%; (second compound 0.1 µM, first compound 3 µM) 26.7%. For the same molecule, the viability, T/C is 52.2% (second compound 0.316 µM, first compound 0.00949 µM); 25.1% (second compound 0.316 µM, first compound 0.03 µM); 24.4% (second compound 0.316 µM, first compound 0.0949 µM); 23.9% (second compound 0.316 µM, first compound 0.3 µM); 20.8% (second compound 0.316 µM, first compound 0.949 µM); 24.8% (second compound 0.316 µM, first compound 3 µM). Also, the viability, T/C by setting is: (second compound 1 µM, first compound 0.00949 µM) 45.4%; (second compound 1 µM, first compound 0.03 µM) 29.2%; (second compound 1 µM, first compound 0.0949 µM) 22.4%; (second compound 1 µM, first compound 0.3 µM) 18.9%; (second compound 1 µM, first compound 0.949 µM) 26.1%; (second compound 1 µM, first compound 3 µM) 28.2%. The viability, T/C is, setting by setting: (second compound 3.16 µM, first compound 0.00949 µM) 44.1%; (second compound 3.16 µM, first compound 0.03 µM) 24.4%; (second compound 3.16 µM, first compound 0.0949 µM) 32.5%; (second compound 3.16 µM, first compound 0.3 µM) 27.6%; (second compound 3.16 µM, first compound 0.949 µM) 41.8%; (second compound 3.16 µM, first compound 3 µM) 28.9%. Besides, the viability, T/C is 54.7% (second compound 10 µM, first compound 0.00949 µM); 19.3% (second compound 10 µM, first compound 0.03 µM); 21.2% (second compound 10 µM, first compound 0.0949 µM); 25.3% (second compound 10 µM, first compound 0.3 µM); 21.4% (second compound 10 µM, first compound 0.949 µM); 15.6% (second compound 10 µM, first compound 3 µM).

In general, viability, T/C refers to the ratio of treated to control. By IC50 is commonly meant the concentration that inhibits the measured activity by half.
